Test results reported in patent US6773891B2 (priority 1998, dated 2004).
Read-outs that look alike come from different tables or passages of the source.

Key:
[1] = system: rats; settings: for Titer, 1 injection / Titer, 2 injections / Titer, 3 injections: i.p.; for Titer, 1 injection: one week after 1st injection; for Titer, 2 injections: one week after 2nd injection; for Titer, 3 injections: one week after 3rd injection
Procedure: Rats were immunized intraperitoneally with the vaccines three times. Injections were given two weeks apart with test bleeds performed one week following the first and second injection. The rats were then exsanguinated one week after the third injection. Freund's complete adjuvant was used for the first injection, and incomplete Freund's adjuvant for the subsequent injections. Serum samples were evaluated in an ELISA assay.
(§1) Antibodies generated against 3′ AMNic vaccine were evaluated using a 3′ AMNic-pGlu ELISA as follows: Dynatech Immulon 4 microtiter plates (Chantilly, Va.) were coated 100 μL/well with 10 ng/mL 3′ AMNic-pGlu in 0.1 M bicarbonate buffer, pH 9.6 and allowed to incubate overnight (ON) at room temperature (RT). The plates were then aspirated and blocked with 1% BSA in PBS for one hour at RT. […] The plates were washed ([…], 0.1% BRIJ) five times and diluted samples and reference serum were loaded. The reference and samples were 2-fold diluted down the plates for a final volume of 100 μL/well and plates are incubated for 1 hour at 37° C. The plates were then washed again and loaded 100 μL/well with peroxidase-conjugated anti-species IgG, Fc specific (Jackson, West Grove, Pa.) diluted in PBB and incubated at 37° C. for one hour. The plates were washed and incubated 10 minutes at RT with 100 μl/well 3,3′,5,5′-tetramethylbenzidine (TMB) substrate (KPL, Gaithersburg, Md.) diluted 1:1 with H2O2 (supplied with TMB reagent kit). The reaction is stopped with the addition of 100 μL/well 1 M phosphoric acid and read at 450 nm on an MR4000 microtiter plate reader (Dynatech). Samples are quantified in relation to the reference using parallel line analysis.

[2] = system: rabbits; settings: i.m., dose 100 μg, arithmetic mean six to seven weeks after third injection
Procedure: as §1

[3] = system: mice; settings: for Titer, 1 injection / Titer, 2 injections / Titer, 3 injections: s.c.; for Titer, 2 injections: one week after 2nd injection; for Titer, 3 injections: one week after 3rd injection
Procedure: Animals were immunized using standard protocols. In mice, three subcutaneous injections of vaccine were administered, two weeks apart, with test bleeds performed one week following the first and second injection, and exsanguination occurring one week following the third injection. Serum samples were evaluated in an ELISA assay, described in Example 10. The ELISA assay utilized 3′ AMNic-pGlu bound to microtiter plates.
Antibodies generated against 3′ AMNic vaccine were evaluated using a 3′ AMNic-pGlu ELISA as follows: Dynatech Immulon 4 microtiter plates (Chantilly, Va.) were coated 100 μL/well with 10 ng/mL 3′ AMNic-pGlu in 0.1 M bicarbonate buffer, pH 9.6 and allowed to incubate overnight (ON) at room temperature (RT). The plates were then aspirated and blocked with 1% BSA in PBS for one hour at RT. […] The plates were washed (9% NaCl, 0.1% BRIJ) five times and diluted samples and reference serum were loaded. The reference and samples were 2-fold diluted down the plates for a final volume of 100 μL/well and plates are incubated for 1 hour at 37° C. The plates were then washed again and loaded 100 μL/well with peroxidase-conjugated anti-species IgG, Fc specific (Jackson, West Grove, Pa.) diluted in PBB and incubated at 37° C. for one hour. The plates were washed and incubated 10 minutes at RT with 100 μl/well 3,3′,5,5′-tetramethylbenzidine (TMB) substrate (KPL, Gaithersburg, Md.) diluted 1:1 with H2O2 (supplied with TMB reagent kit). The reaction is stopped with the addition of 100 μL/well 1 M phosphoric acid and read at 450 nm on an MR4000 microtiter plate reader (Dynatech). Samples are quantified in relation to the reference using parallel line analysis.

[4] = 0.5 mg/mL in 1 mL glass vials
Procedure: A stability study of the nicotine-carrier conjugate of example 4 was carried out. The study used the vaccine vialed in 1 mL glass vials at a concentration of 0.5 mg/mL and the stability of the vialed vaccine was tested at three different temperatures: −70° C., 2 to 8° C. and room temperature.
The stability study consisted of monitoring and assaying the conjugate vaccine using the following:
1.) Visual observation to look for any particulates formed (turbidity, precipitation).
2.) Checking for any significant pH change.
3.) Size exclusion chromatography profile in combination with UV absorption at 260 and 280 nm to determine if the ratio of nicotine incorporation changed.
4.) Reversed phase chromatography to check for any carrier protein degradation.
5.) SDS PAGE with silver staining looking for any proteolytic cleavage of the conjugated protein.

[5] = system: rats; settings: three i.p. injections of 25 μg vaccine, 3 and 10 min after 0.03 mg/kg nicotine infusion over 10 seconds
Procedure: To evaluate the present immunotherapy, an animal model has been developed to simulate the rapid absorption of nicotine from two cigarettes in humans. […] In this model, rats were administered 0.03 mg/kg of nicotine by i.v. infusion over 10 sec., simulating the rapid absorption of nicotine from the lungs in human smokers. Blood samples were taken at 3 and 10 min after nicotine injection for measurement of plasma nicotine.

[6] = system: rats; assay: Locomotor effects of nicotine; format: in vivo; settings: subcutaneous injection
From the text: This experiment used was designed to determine whether passive immunization could prevent an immediate CNS mediated action of nicotine. The rat model used in this experiment was developed by Dr. David Malin and is described in Malin et al. Nicotine-specific IgG reduced distribution to brain and attenuates its behavioral and cardiovascular effects in rats, submitted to the Fifth Annual Meeting of the Society for Research on Nicotine and Tobacco, San Diego, Calif., Mar. 5-7, 1999; To establish a baseline, the effect of a subcutaneous injection of 0.8 mg/kg of nicotine tartrate on locomotor activity level of rats was measured. The 0.8 mg/kg dose of nicotine tartrate is the highest dose that could be used without inducing locomotor abnormalities.
There was an increase in activity level after nicotine injection in rats that were not pre-treated with anti-[3′ AMNic-Suc-rEPA], and in rats that were pretreated with 50 mg of normal rabbit serum IgG. See FIG. 6A, right bar and FIG. 6B, left bar. This effect was suppressed by pretreating the animals with 50 mg of anti-[3′ AMNic-Suc-rEPA] immune IgG (FIG. 6B, right bar).

[7] = cited from earlier work

3-aminomethyl-(−)-nicotine-polyglutamic acid-ADH-rEPA [3′AMNic-pGlu-ADH-rEPA]
Booster response [1]: showed the ability to induce the booster response
Titer, 1 injection ([1]; dose 100 μg (dry weight of lyophilized conjugate)): 0
Titer, 2 injections ([1]; dose 100 μg (dry weight)): 1,067
Titer, 3 injections ([1]; dose 100 μg (dry weight)): 3,752
Titer [2]: 147,000
Booster response [3]: showed the ability to induce the booster response
Titer, 1 injection ([3]; dose 2 μg (dry weight of lyophilized conjugate), one week after 1st injection): 2
Titer, 2 injections ([3]; dose 2 μg (dry weight)): 739
Titer, 3 injections ([3]; dose 2 μg (dry weight)): 6,586
Titer, 1 injection ([3]; dose 10 μg (dry weight), one week after 1st injection): 2
Titer, 2 injections ([3]; dose 10 μg (dry weight)): 2,490
Titer, 3 injections ([3]; dose 10 μg (dry weight)): 9,573
Titer, 1 injection ([3]; dose 30 μg (dry weight), one week after 1st injection): 11
Titer, 2 injections ([3]; dose 30 μg (dry weight)): 2,822
Titer, 3 injections ([3]; dose 30 μg (dry weight)): 8,195

3′aminomethyl-(−)-nicotine-succinyl-rEPA [3′AMNic-Suc-rEPA]
Booster response [1]: showed the ability to induce the booster response
Titer, 1 injection ([1]; Freund's adjuvant, dose 15 μg (protein assay)): 18
Titer, 2 injections ([1]; dose 15 μg (protein assay)): 7,942
Titer, 3 injections ([1]; dose 15 μg (protein assay)): 9,947
Titer, 1 injection ([1]; dose 25 μg (protein assay)): 4
Titer, 2 injections ([1]; dose 25 μg (protein assay)): 1,446
Titer, 3 injections ([1]; dose 25 μg (protein assay)): 5,991
Titer, 1 injection ([1]; dose 50 μg (protein assay)): 353
Titer, 2 injections ([1]; dose 50 μg (protein assay)): 7,211
Titer, 3 injections ([1]; dose 50 μg (protein assay)): 8,996
Titer [2]: 132,000
Booster response [3]: showed the ability to induce the booster response
Titer, 1 injection ([3]; dose 1 μg (protein assay), arithmetic mean one week after 1st injection): 0
Titer, 2 injections ([3]; dose 1 μg (protein assay)): 36
Titer, 3 injections ([3]; dose 1 μg (protein assay)): 4,280
Titer, 1 injection ([3]; dose 5 μg (protein assay), one week after 1st injection): 1
Titer, 2 injections ([3]; dose 5 μg (protein assay)): 884
Titer, 3 injections ([3]; dose 5 μg (protein assay)): 10,727
Titer, 1 injection ([3]; dose 15 μg (protein assay), one week after 1st injection): 3
Titer, 2 injections ([3]; dose 15 μg (protein assay)): 2,476
Titer, 3 injections ([3]; dose 15 μg (protein assay)): 14,160
Stability of the conjugate ([4]; −70° C. and 2 to 8° C.): stability of the conjugate for six months
Stability of the conjugate ([4]; −70° C., 2 to 80° C. and room temperature): stability of the conjugate for six months
Nicotine in plasma versus non-immunized controls [5]: increased levels of nicotine in plasma

CN1CCCC1c1cccnc1.O=C(O)C(O)C(O)C(=O)O (stereo not drawn) [nicotine tartrate]
Highest dose without inducing locomotor abnormalities [6]: 0.8 mg/kg

CN1CCC[C@H]1c1cccnc1 [nicotine, (S)-(−)-nicotine]
Time to peak levels of nicotine in the blood ([7]; after smoking a cigarette): 10 to 15 min
Arterial versus venous nicotine concentrations ([7]; humans, smoking a cigarette): 10 fold
